In the assay the test system is LFCl2A. As to the kind of experiment: In vitro cytotoxicity against LFCl2A (rat hepatocarcinoma) cells. Type of assay: functional, cell-based.

On to `CCCCC/C=C\C/C=C\C/C=C\C/C=C\CCCC(=O)OC[C@@H]1C=CC(=O)[C@@H](C2CCCC=C2C)O1` (some centres undefined), for which, under “read-out: IC50”, the IC50 is 5000 nM. The same measure, in the same setting: with `CCCCC/C=C\C/C=C\C/C=C\C/C=C\CCCC(=O)OC[C@H]1O[C@H](C2CCCC=C2C)C=CC1=O` (some centres undefined) the figure was 1 nM; with `O=C1C=C[C@@H](CC2=CCCCC2)O[C@@H]1CO`, 3000 nM. On the same count and under the same terms, under `CCCCCCCC/C=C\CCCCCCCC(=O)OC[C@H]1O[C@H](CC2=CCCCC2)C=CC1=O` stands 80 nM; under `CC(=O)OC[C@H]1O[C@H](C2CCCC=C2C)C=CC1=O` (some centres undefined), 700 nM. On the same count and under the same terms, with `CCCCC/C=C\C/C=C\C/C=C\C/C=C\CCCC(=O)OC[C@H]1O[C@H](CC2=CCCCC2)C=CC1=O` the figure was 7000 nM; with `CC/C=C\C/C=C\C/C=C\C/C=C\C/C=C\C/C=C\CCC(=O)OC[C@H]1O[C@H](CC2=CCCCC2)C=CC1=O`, 50 nM. For the compound `CC/C=C\C/C=C\C/C=C\C/C=C\C/C=C\C/C=C\CCC(=O)OC[C@H]1O[C@H](C2CCCC=C2C)C=CC1=O` (some centres undefined), under “read-out: IC50”, the IC50 was 20 nM.

For the compound `CCCCCCCC/C=C\CCCCCCCC(=O)OC[C@@H]1C=CC(=O)[C@@H](C2CCCC=C2C)O1` (some centres undefined), under “read-out: IC50”, the IC50 was found to be 35000 nM. `CCCC(=O)OC[C@H]1O[C@H](C2CCCC=C2C)C=CC1=O` (some centres undefined): the IC50 (read-out: IC50) is 350 nM.

As for `O=c1[nH]cc(F)c(=O)[nH]1` [FLUOROURACIL], the half-maximal inhibitory concentration (IC50) turned out to be 28500 nM. As for `CC1=CCCCC1[C@H]1O[C@H](CO)C=CC1=O` (some centres undefined), the IC50 (read-out: IC50) was 3500 nM. `CCCC(=O)OC[C@H]1O[C@H](CC2=CCCCC2)C=CC1=O`: for the setting “read-out: IC50”, the half-maximal inhibitory concentration (IC50) turned out to be 90 nM. Same read-out and setting: with `O=C1C=C[C@@H](CO)O[C@@H]1CC1=CCCCC1` the figure was 9500 nM. Turning to `CC(=O)OC[C@H]1O[C@H](CC2=CCCCC2)C=CC1=O`, the IC50 (read-out: IC50) amounted to 150 nM. Same read-out and setting: under `CC/C=C\C/C=C\C/C=C\C/C=C\C/C=C\C/C=C\CCC(=O)OC[C@@H]1C=CC(=O)[C@@H](CC2=CCCCC2)O1` stands 30000 nM; under `CC/C=C\C/C=C\C/C=C\C/C=C\C/C=C\C/C=C\CCC(=O)OC[C@@H]1C=CC(=O)[C@@H](C2CCCC=C2C)O1` (some centres undefined), 65000 nM. Same read-out and setting: under `CCCCC/C=C\C/C=C\C/C=C\C/C=C\CCCC(=O)OC[C@@H]1C=CC(=O)[C@@H](CC2=CCCCC2)O1` stands 35000 nM. On the same count and under the same terms, under `CCCCCCCC/C=C\CCCCCCCC(=O)OC[C@H]1O[C@H](C2CCCC=C2C)C=CC1=O` (some centres undefined) stands 50 nM.
